In patent US12692259B2, “Morpholine-containing and piperazine-containing CXCR4 modulators and uses related thereto” (Emory University, priority 2021, dated 2026):

Experiments:
[1] = Metabolic stability assay, human liver microsomes (HLM); assay type: in vitro ADME; details: 10 min
Source text: Controls were processed and analyzed like the test compounds.

CYP2D6 = target: T1, CYP2D6 (Homo sapiens, UniProt P10635); assay: Fluorometric CYP450 inhibition assay, CYP2D6; assay type: in vitro ADME; details: read-out: CYP450 IC50 (μM) 2D6
T1 construct: purchased Corning; host or cells: insect cells (microsomes)
T1 sequence (P10635 whole entry): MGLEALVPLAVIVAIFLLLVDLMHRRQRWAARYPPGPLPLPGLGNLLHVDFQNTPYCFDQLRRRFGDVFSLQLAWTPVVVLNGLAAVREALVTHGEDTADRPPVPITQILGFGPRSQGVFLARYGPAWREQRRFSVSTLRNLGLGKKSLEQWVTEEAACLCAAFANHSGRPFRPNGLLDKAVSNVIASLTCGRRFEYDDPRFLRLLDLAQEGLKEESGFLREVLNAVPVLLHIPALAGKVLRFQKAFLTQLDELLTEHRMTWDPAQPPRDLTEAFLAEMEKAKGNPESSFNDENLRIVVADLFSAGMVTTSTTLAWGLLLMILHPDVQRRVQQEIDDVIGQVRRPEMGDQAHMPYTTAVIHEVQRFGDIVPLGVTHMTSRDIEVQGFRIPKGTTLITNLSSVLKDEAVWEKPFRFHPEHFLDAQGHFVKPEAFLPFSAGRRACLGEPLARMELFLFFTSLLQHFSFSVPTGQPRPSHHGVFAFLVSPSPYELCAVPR
Protocol: (§1) The CYP450 inhibition assays utilized microsomes from insect cells expressing human recombinant individual cDNA-expressed CYP isoforms 3A4 and 2D6, as well as the fluorogenic probe that produces fluorescent metabolite. Standard inhibitors were co-incubated with fluorogenic substrates and their inhibitory potential (IC50) was determined. Assay conditions in terms of CYP450 protein concentration and time of incubation were standardized, enzyme kinetics parameters of each fluorescent probe substrate were estimated and IC50 values of inhibitors were determined and validated on different days to check reproducibility.
(§2) A 100 mM sodium phosphate buffer was prepared and adjusted to pH 7.4. In a separate falcon tube, a 2× enzyme/substrate (E/S) solution was prepared in phosphate buffer. The final concentration of CYP2D6 (CORNING®) and 7-amido-4-methyl coumaric acid (AMMC) was 10 nM and 4 μM, and CYP3A4 (CORNING®) and 7-benzyloxy-4-(trifluoromethyl) coumarin (BFC) was 20 nM and 40 μM, respectively. In a separate falcon tube, a 2×NADPH regenerating system (NRS) was prepared in phosphate buffer.
(§3) Both enzymatic assays were conducted in a 96-well microtiter plate (Black, CORNING® COSTAR®) with a final volume of 100 μL. Preparation of the plate began with the addition of 74 μL of the E/S in the first well, and 50 μL to all subsequent wells (from 2-11). […] A 1:3 serial dilution of the test compound was conducted by removing 25 μL from the first well and diluting it with the second and so forth until the tenth row. Final concentrations yielded a range from 200 μM-0.01 μM. Well no. 11 contained no inhibitor, and well no. 12 contained no enzyme. Both were used as controls for background fluorescence. The plate was incubated for 30 min at 37° C. After incubation, the reaction was initiated by the addition of 50 μL of the 2×NRS to each well.
(§4) Immediately (within 1 min) the fluorescence was measured using a microplate reader (BIOTEK® Synergy Neo2). […] Data was exported and analyzed using Graph Pad Prism 7. […] The IC50 value was derived after the data was fitted on a 10-point curve using a four-parameter logistic regression model.

CYP3A4 = target: T2, CYP3A4 (Homo sapiens, UniProt P08684); assay: Fluorometric CYP450 inhibition assay, CYP3A4; assay type: in vitro ADME; details: read-out: CYP450 IC50 (μM) 3A4
T2 construct: purchased Corning; host or cells: insect cells (microsomes)
T2 sequence (P08684 whole entry): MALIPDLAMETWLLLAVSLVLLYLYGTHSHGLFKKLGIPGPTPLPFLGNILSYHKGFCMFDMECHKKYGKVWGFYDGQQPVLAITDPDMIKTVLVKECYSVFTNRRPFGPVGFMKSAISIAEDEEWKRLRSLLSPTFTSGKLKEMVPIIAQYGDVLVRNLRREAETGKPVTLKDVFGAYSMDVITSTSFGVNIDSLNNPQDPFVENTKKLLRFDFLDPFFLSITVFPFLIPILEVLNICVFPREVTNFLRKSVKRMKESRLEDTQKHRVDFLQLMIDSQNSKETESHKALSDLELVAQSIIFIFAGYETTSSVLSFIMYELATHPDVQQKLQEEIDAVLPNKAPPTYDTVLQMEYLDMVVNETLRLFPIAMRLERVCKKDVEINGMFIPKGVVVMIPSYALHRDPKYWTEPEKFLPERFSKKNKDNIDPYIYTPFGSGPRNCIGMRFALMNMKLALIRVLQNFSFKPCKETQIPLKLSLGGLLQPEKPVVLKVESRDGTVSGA
Protocol: as §1, §2, §3, §4

in vitro = details: mouse, 10 min, 3 µM, pH 7.4
Protocol: Metabolic stability assay was performed at Emory University's Department of Chemistry or by Bristol Myers Squibb. The method used by Emory University's Department of Chemistry is described below.
Each method was developed in the presence of an internal standard (ISTD) d5-7-ethoxy coumarin. The column temperature was maintained at 40° C. for most of the samples otherwise noted. The detection was operated in the Agilent JetStream electrospray positive ionization using multiple reaction monitoring mode (MRM).
Other MS conditions were as follows: dwell time 100 ms; gas flow 10 L/min; nebulizer pressure 45 psi; delta EMV 200 V; fragmentor voltage and collision energy for individual compounds vary.
Test compounds were dissolved in 100% DMSO or 100% MeOH to make 10 mM stock solutions. Verapamil (Sigma Aldrich) aided as a positive control and was dissolved in 100% DMSO to make 10 mM stock solutions. The 10 mM stock solution of test and control compounds were further diluted in potassium phosphate buffer (100 mM, pH 7.4) to 500 μM to ensure the organic solvent content was <0.2%. Human liver microsomes (HLMs) were purchased from Xenotech at 20 mg/mL. NADPH (Sigma Aldrich) 10 mM stocks were prepared in deionized water.
The HLM assay was prepared in a 1.5 mL Eppendorf tube with a final volume of 1100 μL for duplicate runs. Each reaction contained phosphate buffer (928.4 μL), liver microsomes (55 μL), and test compound resulting in a final concentration of 3 μM (6.6 μL of 500 μM). The reaction was initiated with 110 μL of 10 mM NADPH. […] Before centrifugation each of the aliquoted tubes were vortexed to make sure compounds were in the solution. The aliquots were centrifuged at 12,000 g for 5 min and the supernatant removed and placed in an LC-MS vial. Each time point was assessed using LC-MS and the area, based on the extracted ion, was integrated with respect to the ISTD. […] A no-NADPH negative control with test or control compound was performed in a single run (150 μL) at the longest time point. Controls were processed and analyzed like the test compounds. Each time point was run in duplicates followed by in-between blank washes to avoid the carryover and to equilibrate the column.
The MLM assay was performed using the same procedures as those described above for the HLM assay.

CXCR4 [2] = target: T3, CXCR4 (Homo sapiens, UniProt P61073); assay: cAMP assay in CXCR4-CHO-Glo cells (GloSensor, forskolin + SDF-1α); assay type: cell-based; design: expressed in transfected cells
T3 sequence (P61073 whole entry): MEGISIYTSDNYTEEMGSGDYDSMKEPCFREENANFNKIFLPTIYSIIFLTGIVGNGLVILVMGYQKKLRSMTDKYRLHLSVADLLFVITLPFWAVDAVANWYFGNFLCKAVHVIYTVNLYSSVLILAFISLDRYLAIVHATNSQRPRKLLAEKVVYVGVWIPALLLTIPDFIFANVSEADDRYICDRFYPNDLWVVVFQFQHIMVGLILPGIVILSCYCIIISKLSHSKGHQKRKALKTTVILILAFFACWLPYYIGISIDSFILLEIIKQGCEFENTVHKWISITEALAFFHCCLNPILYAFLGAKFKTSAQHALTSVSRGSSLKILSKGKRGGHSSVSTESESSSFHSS
Source text: Materials, reagents, and instrument—Advanced DMEM (Gibco), trypsin EDTA (0.05%, phenol red), L-glutamine, HBSS buffer with and without Ca^2+/Mg^2+ (Gibco), antibiotic-antimycotic (Gibco), hygromycin B, and geneticin selective antibiotic (G418 sulfate) were purchased from Invitrogen. Forskolin (Tocris), SDF-1α (R&D Systems), HEPES (Sigma Aldrich), FBS (Atlanta Biologicals), D-luciferin (Gold Biotechnology), sterile 60 mm tissue culture dishes, and 96-well sterile tissue culture plates were purchased from Corning.
The assay targeted CXCR4 expressed in CHO-gloSensor cells. It monitored GPCR activation based on forskolin-stimulated cAMP production in cells. The assay used a genetically encoded biosensor with its cAMP binding domain fused to luciferase. Binding of cAMP to the cAMP binding domain changed the conformation of the biosensor, leading to the activation of luciferase. The intensity of the luciferase signal (light output) resulted from the oxidation of D-luciferin to oxyluciferin is proportional to the amount of cAMP produced in the cells.
The assay was performed in triplicate using live cells in 96-well tissue culture plates. Cells were pre-incubated in the dark at room temperature for one hour in the presence of D-luciferin. Bioluminescence was quantified before and after the agonist/antagonist addition. Stock solution of forskolin and SDF-1a, was prepared in Locke-Luc buffer. Stock solutions of the test compounds were prepared in DMSO (10 mM); they were diluted by Locke's buffer for use in the assay.
CHO-Glo cells, a cell line stably expressing the GloSensor cAMP biosensor (Promega), were transfected with cDNA encoding human CXCR4 in Pires-AcGFP1 (Clontech) and a stable cell line was isolated (CXCR4-CHO-Glo cells). The CXCR4-CHO-Glo cells were grown to confluency on 60 mm tissue culture dishes. After trypsinization, the cells were plated on 96-well plates and incubated overnight. The next day, culture media in each well was aspirated and replaced with 100 μL Locke's buffer containing 4 mM D-luciferin, followed by incubation in the dark for one hour. Before the addition of agonist/antagonist, each plate was read five times at 2 min intervals to obtain basal bioluminescence values from each well. The average of these five pre-readings was used to normalize each well's response to account for differences in GloSensor expression and cell density. After five pre-readings, cAMP formation was initiated with the addition of 50 μL solution of test compound (TC) in Locke Luc buffer containing forskoline and SDF-1α. […] Luminescence was measured immediately after the addition of the antagonist solution. The measurements were taken every two minutes for 30 minutes in kinetics mode after antagonist addition. IC50 values were calculated from the 4-parameter logistic equation using Prism GraphPad.

CYP450 isoforms 2D6 = CYP450 isoforms 2D6 (Homo sapiens, UniProt P10635); details: cited from earlier work
CYP450 isoforms 2D6, sequence (P10635 whole entry, canonical isoform): as the sequence (P10635 whole entry) above

CYP450 isoforms 3A4 = CYP450 isoforms 3A4 (Homo sapiens, UniProt P08684); details: cited from earlier work
CYP450 isoforms 3A4, sequence (P08684 whole entry, canonical isoform): as the sequence (P08684 whole entry) above

PAMPA assay = assay type: in vitro ADME; details: pH 7.4
Protocol: PAMPA assay was performed by BioAssay Systems Services or Bristol Myers Squibb. The method used by BioAssay Systems Services is described below.
Stock solutions in DMSO for all compounds (10 mM) were thawed. The assay was performed in duplicate by following the PAMPA-096 procedure for sample plating. 4% Lecithin in dodecane solution was prepared by resuspending the dried lecithin with 750 μL dodecane. PBS pH 7.4 was used as the diluent. Two sets of plates and equilibrium solutions were incubated for 4 hours at room temperature. Acceptor and equilibrium solutions were analyzed in a UV plate. OD280 nm was used for High Permeability Control (chloramphenicol). OD270 nm was used for Medium Permeability Control (diclofenac) and Low Permeability Control (theophylline). OD254 nm was used for the test compounds.
Data analysis was performed by using the peak absorbance for each respective test compound and Permeability Control to determine the Permeability Rate (Pe) via the following equation: […]
where ODA is the absorbance of Acceptor Solution, ODE is the absorbance of the Equilibrium Standard, and C is determined by the equation below: […]
where Donor Volume (VD) is 0.2 cm^3, Acceptor Volume (VA) is 0.3 cm^3, and Membrane Area (Area) is 0.24 cm^2.

CXCR4 [3] = target: T3, CXCR4; assay: Calcium flux assay (antagonist mode, SDF-1α challenge); assay type: cell-based; design: Eurofins or Bristol Myers Squibb (contract assay); details: read-out: CXCR4 Ca^+2 Flux IC50
Protocol: Calcium flux assay was performed by Eurofins or Bristol Myers Squibb. The method used by Eurofins is described below.
Compound plate preparation: Vehicle controls and positive controls were prepared to ensure all assays were properly controlled. All wells were prepared using the Eurofins Discovery Services GPCRProfiler® Assay Buffer. The GPCRProfiler® Assay Buffer was a modified Hanks Balanced Salt Solution (HBSS) where HBSS was supplemented to contain 20 mM HEPES and 2.5 mM Probenecid at pH 7.4.
Agonist assay (first addition): Compound(s) supplied were plated in duplicate for each concentration assayed. During the agonist assay, the concentration(s) reflects accommodation for the dilution of compound during the antagonist assay. Please see below for further details. […] The reference agonist for each GPCR was included at Emax (the concentration where the reference agonist elicited a maximal response). The agonist assay was conducted on a FLIPR^TETRA instrument where the test compound(s), vehicle controls, and reference agonist were added to the assay plate after a fluorescence/luminescence baseline was established. The agonist assay was a total of 180 seconds and was used to assess each compound's ability to activate each GPCR assayed. Upon completion of the three minute agonist assay, the assay plate was incubated at 25° C. for a further two minutes. After the incubation period the antagonist assay was initiated.
The antagonist assay was conducted using the same assay plate that was used for the agonist assay. The antagonist assay was conducted on a FLIPR^TETRA instrument where vehicle controls and challenge concentration of reference agonist were added to appropriate wells. The antagonist assay was a total of 180 seconds and was used to assess each compound's ability to inhibit each GPCR assayed.
Data Processing—All plates were subjected to appropriate baseline corrections. Once baseline corrections were processed, maximum fluorescence/luminescence values were exported, and data manipulated to calculate percentage activation and percentage inhibition. […] Data manipulation calculation is as followed: ((Max RLU)−(Baseline Avg.))/((Positive Avg.)−(Baseline Avg.)).

Row | Liver Microsomes % rem. @ 10 min. H [1] [%] | IC50 (CYP2D6) [µM] | IC50 (CYP3A4) [µM] | Liver Microsomes % rem. @ 10 min. M (in vitro) [%] | IC50 (CXCR4 [2]) [µM] | Papp at 4 h (PAMPA assay) [×10⁻⁶ cm/s] | IC50 (CXCR4 [3]) [µM] | SMILES | inhibition of CYP450 isoform 2D6 (CYP450 isoforms 2D6) | inhibition of CYP450 isoform 3A4 (CYP450 isoforms 3A4)
1 | 35.6 | > 20 | > 20 | 66.4 | 2.32 |  |  | CN(C[C@H]1Cc2c(cccc2N2CCN(C(=O)OCc3ccccc3)CC2)CN1)[C@H]1CCCc2cccnc21 [EMU-291] |  | 
2 |  |  |  |  |  |  |  | NCCCCN(Cc1nc2ccccc2[nH]1)[C@H]1CCCc2cccnc21 [AMD11070, mavorixafor] | significant inhibition | significant inhibition
3 | 52.6 | 0.44 | > 20 | 3.68 |  | 21.2 | 0.0825 | c1ccc2c(c1)CN[C@@H](CN(CCCCN1CCOCC1)[C@H]1CCCc3cccnc31)C2 [EMU-178] |  | 
4 | 100 | > 20 | > 20 | 19.6 |  | 21.5 | 0.27 | c1cnc2c(c1)CN[C@H](CN(CCCCN1CCOCC1)[C@@H]1CCCc3cccnc31)C2 [EMU-204, (R)—N-(4-morpholinobutyl)-N—(((S)-5,6,7,8-tetrahydro-1,6-naphthyridin-7-yl)methyl)-5,6,7,8-tetrahydroquinolin-8-amine] |  | 
